Data as given in paper PMC4859410 (Pharmacogenetics and genomics, 2010).

Assays:
Format in all cases: in vitro ADME
OATP1B3 = molecular target: T1, OATP1B3 (Homo sapiens, UniProt Q9NPD5); assay: Drug uptake in X. laevis oocytes injected with SLCO1B3; conditions: without human serum albumin; for Drug uptake, OATP1B3: OATP1B3 cRNA injected oocytes; for Drug uptake, OATP1B3 / Drug uptake, Water: 1 µM (darunavir 3 µM, performed once), 18°C, 1hr, mean ± SD; for Drug uptake, Water: water injected control oocytes (Table 3); for Ratio (fold increase in OATP1B3 cRNA injected oocytes compared to water injected oocytes): * = P < 0.05
T1 sequence (Q9NPD5 1-702): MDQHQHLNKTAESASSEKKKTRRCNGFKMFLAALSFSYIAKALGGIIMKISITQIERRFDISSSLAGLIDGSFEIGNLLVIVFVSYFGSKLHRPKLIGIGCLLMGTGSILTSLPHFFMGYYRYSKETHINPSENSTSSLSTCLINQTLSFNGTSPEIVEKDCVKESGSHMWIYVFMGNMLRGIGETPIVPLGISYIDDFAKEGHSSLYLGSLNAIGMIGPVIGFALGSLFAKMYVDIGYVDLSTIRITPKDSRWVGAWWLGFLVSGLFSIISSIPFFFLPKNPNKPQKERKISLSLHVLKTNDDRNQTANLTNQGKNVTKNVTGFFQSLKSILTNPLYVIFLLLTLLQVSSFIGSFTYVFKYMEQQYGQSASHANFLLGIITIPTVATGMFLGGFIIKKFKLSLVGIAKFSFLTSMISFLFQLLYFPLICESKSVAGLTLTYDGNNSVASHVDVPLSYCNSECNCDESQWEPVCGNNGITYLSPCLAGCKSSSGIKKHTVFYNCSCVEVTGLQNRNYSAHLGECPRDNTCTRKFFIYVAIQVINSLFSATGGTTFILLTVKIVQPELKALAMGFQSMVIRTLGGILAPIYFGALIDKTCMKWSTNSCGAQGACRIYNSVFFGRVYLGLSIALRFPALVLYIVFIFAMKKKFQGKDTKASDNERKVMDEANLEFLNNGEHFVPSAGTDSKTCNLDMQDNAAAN

OATP1A2 = molecular target: T2, OATP1A2 (Homo sapiens, UniProt P46721); assay: Drug uptake in X. laevis oocytes injected with SLCO1A2; conditions: for Drug uptake, OATP1A2: OATP1A2 cRNA injected oocytes; for Drug uptake, OATP1A2 / Drug uptake, Water: 1 µM (darunavir 3 µM), 18°C, 1hr, mean ± SD; for Drug uptake, Water: water injected control oocytes (Table 1); for Accumulation in SLCO1A2 cRNA injected oocytes compared to water injected control oocytes (in words): in the presence and in the absence of 2% HSA; for Ratio (fold increase in OATP1A2 cRNA injected oocytes compared to water injected oocytes): * = P < 0.05
T2 sequence (P46721 1-670): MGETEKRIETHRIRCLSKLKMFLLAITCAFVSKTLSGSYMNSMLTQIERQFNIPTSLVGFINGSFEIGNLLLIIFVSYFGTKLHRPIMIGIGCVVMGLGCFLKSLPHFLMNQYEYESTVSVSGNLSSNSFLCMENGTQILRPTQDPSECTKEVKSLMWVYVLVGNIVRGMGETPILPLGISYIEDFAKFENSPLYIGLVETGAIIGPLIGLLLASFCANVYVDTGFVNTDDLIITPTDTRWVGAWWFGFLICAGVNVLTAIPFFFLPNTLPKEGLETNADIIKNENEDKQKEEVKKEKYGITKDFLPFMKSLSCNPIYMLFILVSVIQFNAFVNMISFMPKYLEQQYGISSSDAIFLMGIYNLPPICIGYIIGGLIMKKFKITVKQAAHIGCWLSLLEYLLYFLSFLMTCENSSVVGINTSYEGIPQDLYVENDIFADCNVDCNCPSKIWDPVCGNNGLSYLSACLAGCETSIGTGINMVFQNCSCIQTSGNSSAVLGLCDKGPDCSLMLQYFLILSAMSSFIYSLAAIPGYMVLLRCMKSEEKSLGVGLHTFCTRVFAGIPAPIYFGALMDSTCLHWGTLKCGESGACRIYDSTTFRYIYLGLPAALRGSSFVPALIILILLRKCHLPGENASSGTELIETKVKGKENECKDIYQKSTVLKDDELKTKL

OATP1B1 = molecular target: T3, OATP1B1 (Homo sapiens, UniProt Q9Y6L6); assay: Drug uptake in X. laevis oocytes injected with SLCO1B1; conditions: for Drug uptake, OATP1B1: OATP1B1 cRNA injected oocytes; for Drug uptake, OATP1B1 / Drug uptake, Water: 1 µM (darunavir 3 µM), 18°C, 1hr, mean ± SD; for Drug uptake, Water: water injected control oocytes (Table 2); for Accumulation in SLCO1B1 cRNA injected oocytes compared to water injected control oocytes (in words): in the presence and in the absence of 2% HSA; for Ratio (fold increase in OATP1B1 cRNA injected oocytes compared to water injected oocytes): * = P < 0.05
T3 sequence (Q9Y6L6 1-691): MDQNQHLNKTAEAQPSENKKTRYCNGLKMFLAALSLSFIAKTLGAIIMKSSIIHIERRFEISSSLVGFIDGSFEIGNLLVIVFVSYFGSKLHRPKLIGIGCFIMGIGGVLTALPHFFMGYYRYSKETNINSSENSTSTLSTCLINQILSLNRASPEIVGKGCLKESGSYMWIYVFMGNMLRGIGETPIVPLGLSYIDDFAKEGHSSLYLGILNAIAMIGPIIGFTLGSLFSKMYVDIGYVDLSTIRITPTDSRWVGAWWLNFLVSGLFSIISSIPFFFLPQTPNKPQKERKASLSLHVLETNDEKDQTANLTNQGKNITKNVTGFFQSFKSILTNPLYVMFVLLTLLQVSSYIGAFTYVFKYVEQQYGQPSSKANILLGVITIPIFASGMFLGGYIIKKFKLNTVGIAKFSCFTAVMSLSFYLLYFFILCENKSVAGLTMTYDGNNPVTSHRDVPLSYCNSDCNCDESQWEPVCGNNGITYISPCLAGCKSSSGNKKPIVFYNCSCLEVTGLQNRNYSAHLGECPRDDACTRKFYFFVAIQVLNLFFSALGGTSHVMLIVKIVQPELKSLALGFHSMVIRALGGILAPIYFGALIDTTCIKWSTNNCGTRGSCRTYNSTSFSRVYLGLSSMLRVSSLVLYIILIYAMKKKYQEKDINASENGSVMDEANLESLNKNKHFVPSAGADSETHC

Row | Structure (SMILES) | Drug uptake, OATP1B3 (OATP1B3) | Drug uptake, Water (OATP1B3) | Drug uptake, OATP1A2 (OATP1A2; with 2% human serum albumin) | Drug uptake, OATP1A2 (OATP1A2; without human serum albumin) | Drug uptake, Water (OATP1A2; with 2% human serum albumin) | Drug uptake, Water (OATP1A2; without human serum albumin) | Drug uptake, OATP1B1 (OATP1B1; with 2% human serum albumin) | Drug uptake, OATP1B1 (OATP1B1; without human serum albumin) | Drug uptake, Water (OATP1B1; with 2% human serum albumin) | Drug uptake, Water (OATP1B1; without human serum albumin) | Accumulation in SLCO1B3 cRNA injected oocytes compared to water injected control (in words) (OATP1B3) | Ratio (fold increase in OATP1B3 cRNA injected oocytes compared to water injected oocytes) (OATP1B3) | Accumulation in SLCO1A2 cRNA injected oocytes compared to water injected control oocytes (in words) (OATP1A2) | Ratio (fold increase in OATP1A2 cRNA injected oocytes compared to water injected oocytes) (OATP1A2; with 2% human serum albumin) | Ratio (fold increase in OATP1A2 cRNA injected oocytes compared to water injected oocytes) (OATP1A2; without human serum albumin) | Accumulation in SLCO1B1 cRNA injected oocytes compared to water injected control oocytes (in words) (OATP1B1) | Ratio (fold increase in OATP1B1 cRNA injected oocytes compared to water injected oocytes) (OATP1B1; with 2% human serum albumin) | Ratio (fold increase in OATP1B1 cRNA injected oocytes compared to water injected oocytes) (OATP1B1; without human serum albumin)
1 | CC(C)CN(C[C@@H](O)[C@H](Cc1ccccc1)NC(=O)O[C@H]1CO[C@H]2OCC[C@H]21)S(=O)(=O)c1ccc(N)cc1 [Darunavir, darunavir] | 5.41 pmol/oocyte | 3.29 pmol/oocyte | 2.56 ± 0.78 pmol/oocyte | 4.32 ± 0.75 pmol/oocyte | 0.96 ± 0.37 pmol/oocyte | 2.18 ± 0.40 pmol/oocyte | 2.14 ± 0.82 pmol/oocyte | 4.13 ± 0.40 pmol/oocyte | 0.72 ± 0.18 pmol/oocyte | 2.12 ± 0.55 pmol/oocyte |  |  |  |  |  |  |  | 
2 | O=C1Nc2ccc(Cl)cc2[C@@](C#CC2CC2)(C(F)(F)F)O1 [Efavirenz, efavirenz] | 18.21 ± 6.21 pmol/oocyte | 16.56 ± 6.84 pmol/oocyte | 1.63 ± 0.24 pmol/oocyte | 10.3 ± 2.90 pmol/oocyte | 1.47 ± 0.28 pmol/oocyte | 12.6 ± 2.49 pmol/oocyte | 1.51 ± 0.12 pmol/oocyte | 16.0 ± 4.17 pmol/oocyte | 1.46 ± 0.21 pmol/oocyte | 15.9 ± 1.70 pmol/oocyte | No significant increase | 1.10 | No significant increase | 1.11 | 0.81 | No significant increase | 1.03 | 1.00
3 | C[C@]12CC[C@@H]3c4ccc(OS(=O)(=O)O)cc4CC[C@H]3[C@@H]1CCC2=O [estrone-3-sulphate] | 0.50 ± 0.20 pmol/oocyte | 0.21 ± 0.01 pmol/oocyte | 0.35 ± 0.15 pmol/oocyte | 2.02 ± 0.52 pmol/oocyte | 0.10 ± 0.03 pmol/oocyte | 0.19 ± 0.05 pmol/oocyte | 0.15 ± 0.03 pmol/oocyte | 0.51 ± 0.17 pmol/oocyte | 0.08 ± 0.03 pmol/oocyte | 0.16 ± 0.04 pmol/oocyte | trend towards increased accumulation |  | significant increase in accumulation | 3.55 * | 10.9 * | significant increase in accumulation | 1.90 * | 3.21 *
4 | Cc1ccnc2c1NC(=O)c1cccnc1N2C1CC1 [Nevirapine, nevirapine] | 3.12 ± 0.47 pmol/oocyte | 2.98 ± 0.59 pmol/oocyte | 2.17 ± 0.26 pmol/oocyte | 2.92 ± 0.59 pmol/oocyte | 2.23 ± 0.93 pmol/oocyte | 2.65 ± 0.54 pmol/oocyte | 2.01 ± 0.40 pmol/oocyte | 2.26 ± 0.20 pmol/oocyte | 1.80 ± 0.46 pmol/oocyte | 2.14 ± 0.22 pmol/oocyte | No significant increase | 1.05 | No significant increase | 0.97 | 1.10 | No significant increase | 1.12 | 1.06
